Like-named read-outs stand apart in the source and are kept apart here.

The target of assay [1] is T1, Full-length (FL)-PRMT5-MEP50 enzyme complex (Homo sapiens, UniProt O14744).
T1 construct: Full-length (FL)-PRMT5-MEP50 enzyme complex (recombinant proteins from baculovirus-transfected Sf21 cells: FL-PRMT5; MW=73837 kDa and FL-MEP50; MW=38614); made in house; host or cells: baculovirus-transfected Sf21 cells
The assay is described as follows: PRMT5-MEP50 Enzyme Methylation Assay (Version A). Type of assay: biochemical. On the procedure: PRMT5-MEP50 Enzyme Methylation Assay (Version A)
PRMT5-MEP50 biochemical assay is a direct measurement of the methylation activity of the enzyme complex on a short peptide substrate derived from the N-terminus of H4 histone. Methylation experiment was performed with recombinant PRMT5-MEP50 protein complex. The assessment of inhibitory effect of small molecules was measured by the effectiveness of the compounds to inhibit this reaction (EC50).
In this assay, the potency (EC50) of each compound was determined from a twenty-point (1:2 serial dilution; top compound concentration of 100000 nM) titration curve using the following outlined procedure. To each well of a white ProxiPlus 384 well-plate, 100 nL of compound (1% DMSO in final assay volume of 10 μL) was dispensed, followed by the addition of 8 μL of 1× assay buffer (50 mM Bicine pH 8.0, 1 mM DTT, 0.004% Tween20, 0.01% BSA) containing 1.25 nM of Full-length (FL)-PRMT5-MEP50 enzyme complex (recombinant proteins from baculovirus-transfected Sf21 cells: FL-PRMT5; MW=[…] and FL-MEP50; MW=38614) and 1 μL of 150 μM S-(5′-Adenosyl)-L-Methionine Chloride (SAM). A plate were sealed and placed in a 37° C. humidified chamber for a 60 minutes pre-incubation with compound. Subsequently, each reaction was initiated by the addition of 1 μL 1× assay buffer containing 750 nM biotinylated H4R3(Me1) peptide. The final reaction in each well of 10 μL consists of 1.0 nM PRMT5-MEP50, 75 nM biotinylated-peptide, and 15 μM SAM. Methylation reactions were allowed to proceed for 150 minutes in a sealed plate at 37° C. Reactions were immediately quenched by the addition of 1 μL of 5% formic acid. A plate was then frozen and shipped to SAMDI™ Tech Inc. to determine the percent conversion from H4R3(Me1) to H4R3(Me2). Dose-response curves were generated by plotting percent effect (% product conversion; Y-axis) vs. Log 10 compound concentrations (X-axis). EC50 values were determined by non-linear regression according to models for either sigmoidal (4 parameters) or biphasic (7 parameters) dose-response curves.

Assay [2] deals with symmetric dimethylation of arginine (SDMA) of PRMT5 substrates in MCF-7 cells. The assay is described as follows: PRMT5 Cell Target Engagement (TE) Assay. Type of assay: cell-based. The following applies: 3 days treatment, SDMA high content imaging. The text has this: PRMT5 Cell Target Engagement (TE) Assay
The PRMT5 TE assay is a biomarker assay for identifying compounds that inhibit symmetric dimethylation of arginine (SDMA) of PRMT5 substrates. The following substrates have been reported for PRMT5: histone H2A and H4 R3, Histone H3 R2, Histone H3 R8, spliceosome Sm proteins, ribosomal protein RPS10, p53, FEN1, nucleoplasmin, nucleolin, EGFR and EBNA. The assay focuses on detecting symmetrically dimethylated nuclear proteins using high content imaging technology. Detection of the expression of symmetrically dimethylated nuclear proteins is through a mixture of primary rabbit monoclonal antibodies to SDMA (CST 13222), which in turn recognized by an Alexafluor 488 dye-conjugated anti-rabbit IgG secondary antibody. The IN Cell Analyzer 2200 or Opera-Phenix measures nuclear Alexafluor 488 fluorescent dye intensity that is directly related to the level of expression of symmetrically dimethylated nuclear proteins at the single cell level. Nuclear AF488 dye intensities are compared to the mean value for DMSO treated cells (MIN) to report percent of inhibition for each compound-treated well.
In this assay, the cell potency (EC50) of each compound was determined from a ten point (1:3 serial dilution; top compound concentration of 10000 nM) titration curve using the following outlined procedure. Each well of a BD falcon collagen coated black/clear bottom 384-well plate was seeded with 4000 MCF-7 cells in 30 μl media and allowed to attach for 5 h. Media is ATCC-formulated Eagle's Minimum Essential Medium, Catalog No. 30-2003. To make the complete growth medium, the following components were added to the base medium: 0.01 mg/mL human recombinant insulin; fetal bovine serum to a final concentration of 10%. Additional 30 μl of media containing 2× compounds were added to each well. Cells were treated for 3 days in 37° C. CO2 incubator. On day 3, cells were fixed with Cytofix, permeabilized with 0.4% Triton-X-100/Cytofix, and washed with D-PBS without Ca/Mg. Cells were blocked with Licor Odessey blocking reagent for 1 h at room temperature, followed by incubation with anti-SDMA (1:1000) antibody at 4° C. overnight. 1° antibody was removed, followed by three washings with DPBS without Ca/Mg and 0.05% Tween20. Hoechst (5 μg/mL), Cell Mask deep stain (1:2000) and Alexa488-conjugated goat anti-rabbit IgG (2 μg/mL) was added for 1 h at room temperature. A final washing step (three washes) was performed before sealing plate for imaging on In Cell Analyzer 2200 or Opera-Phenix. Images from analyzer were uploaded to Columbus (at WP or BOS) for image analysis. IC50 values were determined by 4 parameters robust fit of percent fluorescence units vs. (Log10) compound concentrations.

Setting [3] is: second value of 7 parameter biphasic fit, read-out: Enzyme Methylation Assay Version A (EC50 2).
The mark [4] stands for this setting: single EC50 = 4 parameter single site sigmoidal fit, EC50 1 = first value of 7 parameter biphasic fit, read-out: Enzyme Methylation Assay Version A (EC50 or EC50 1).

T1 sequence (O14744 whole entry): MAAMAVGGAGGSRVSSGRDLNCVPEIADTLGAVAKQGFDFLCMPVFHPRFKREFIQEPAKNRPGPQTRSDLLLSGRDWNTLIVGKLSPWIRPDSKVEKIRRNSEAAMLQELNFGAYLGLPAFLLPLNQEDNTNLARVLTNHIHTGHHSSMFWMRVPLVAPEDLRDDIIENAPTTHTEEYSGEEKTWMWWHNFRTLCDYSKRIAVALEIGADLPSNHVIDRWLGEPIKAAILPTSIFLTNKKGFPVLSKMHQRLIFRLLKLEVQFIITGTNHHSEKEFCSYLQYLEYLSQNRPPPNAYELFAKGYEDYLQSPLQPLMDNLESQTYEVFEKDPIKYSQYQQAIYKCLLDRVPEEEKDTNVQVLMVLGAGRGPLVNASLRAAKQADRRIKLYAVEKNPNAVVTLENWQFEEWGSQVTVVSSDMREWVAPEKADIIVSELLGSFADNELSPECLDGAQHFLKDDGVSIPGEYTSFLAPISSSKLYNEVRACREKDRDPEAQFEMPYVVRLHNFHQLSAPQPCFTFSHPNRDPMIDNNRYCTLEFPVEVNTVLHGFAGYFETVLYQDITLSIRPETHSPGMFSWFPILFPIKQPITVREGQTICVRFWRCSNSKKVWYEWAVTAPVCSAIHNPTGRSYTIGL
T1 sequence (Q9BQA1 whole entry partner): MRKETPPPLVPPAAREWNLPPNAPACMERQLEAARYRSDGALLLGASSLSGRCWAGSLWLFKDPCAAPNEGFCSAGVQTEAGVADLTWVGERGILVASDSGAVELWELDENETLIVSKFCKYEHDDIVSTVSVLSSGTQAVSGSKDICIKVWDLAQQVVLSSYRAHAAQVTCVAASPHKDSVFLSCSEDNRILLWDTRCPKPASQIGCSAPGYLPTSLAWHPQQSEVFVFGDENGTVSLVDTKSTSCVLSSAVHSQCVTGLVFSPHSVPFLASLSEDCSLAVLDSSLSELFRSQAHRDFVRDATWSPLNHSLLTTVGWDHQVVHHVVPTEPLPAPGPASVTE

Regarding `CCC1Oc2ccc(C(=O)N3CC[C@]4(Cc5ccccc5CN4)[C@H](O)C3)cc2NC1=O` (single isomer, unassigned) [Example 105, (2S or 2R)-2-ethyl-6-((3R,3′R)-3′-hydroxy-1,4-dihydro-2H-spiro[isoquinoline-3,4′-piperidine]-1′-carbonyl)-2H-benzo[b][1,4]oxazin-3(4H)-one], the EC50 in assay [1] (setting [3]) amounted to 146 nM; in assay [1] (setting [4]) it was 0.519 nM; in assay [2], 4.39 nM.
Consider `O=C1Nc2cc(C(=O)N3CC[C@]4(Cc5ccccc5CN4)[C@H](O)C3)ccc2OC1C1CC1` (single isomer, unassigned) [Example 106, (2R or 2S)-2-cyclopropyl-6-((3R,3′R)-3′-hydroxy-1,4-dihydro-2H-spiro[isoquinoline-3,4′-piperidine]-1′-carbonyl)-2H-benzo[b][1,4]oxazin-3(4H)-one], for which the EC50 stood at 1010 nM in assay [1] (setting [3]), 0.43 nM in assay [1] (setting [4]) and 36.8 nM in assay [2].
Regarding `O=C1Nc2cc(C(=O)N3CC[C@]4(Cc5ccccc5CN4)[C@H](O)C3)ccc2OC1C1CC1` (single isomer, unassigned) [Example 107, (2S or 2R)-2-cyclopropyl-6-((3R,3′R)-3′-hydroxy-1,4-dihydro-2H-spiro[isoquinoline-3,4′-piperidine]-1′-carbonyl)-2H-benzo[b][1,4]oxazin-3(4H)-one], the EC50 in assay [1] (setting [4]) stood at 0.272 nM; in assay [2] it was 6.67 nM.
As to `CC(O)c1cc(C(F)(F)F)cn2cc(C(=O)N3CC[C@]4(Cc5ccccc5CN4)[C@H](O)C3)nc12` (single isomer, unassigned) [Example 108], the EC50 in assay [1] (setting [3]) came to 207 nM; in assay [1] (setting [4]), 4.25 nM; in assay [2] (Homo sapiens, MCF7, 72 h), 12.9 nM.
On to `CC(O)c1cc(C(F)(F)F)cn2cc(C(=O)N3CC[C@]4(Cc5ccccc5CN4)[C@H](O)C3)nc12` (single isomer, unassigned) [Example 109], for which the half-maximal effective concentration (EC50) in assay [1] (setting [3]) was found to be 126 nM; in assay [1] (setting [4]), 0.276 nM; in assay [2], 8.28 nM.
As to `COC(C)c1cc(C)c2nc(C(=O)N3CC[C@]4(Cc5ccccc5CN4)[C@H](O)C3)cn2c1` (single isomer, unassigned) [Example 122], the EC50 in assay [1] (setting [3]) was found to be 144 nM; in assay [1] (setting [4]) it was 0.304 nM; in assay [2], 5.56 nM.
For `COC(C)c1cc(C)c2nc(C(=O)N3CC[C@]4(Cc5ccccc5CN4)[C@H](O)C3)cn2c1` (single isomer, unassigned) [Example 123], the 50% effective concentration (EC50) worked out at 182 nM in assay [1] (setting [3]), 0.378 nM in assay [1] (setting [4]) and 11.8 nM in assay [2].
With `COC(C)c1cnc2nc(C(=O)N3CC[C@]4(Cc5ccccc5CN4)[C@H](O)C3)cn2c1` (single isomer, unassigned) [Example 136], the EC50 in assay [1] (setting [4]) worked out at 32.9 nM; in assay [2] (Homo sapiens, MCF7, 72 h), 146 nM.
As for `COC(C)c1cnc2nc(C(=O)N3CC[C@]4(Cc5ccccc5CN4)[C@H](O)C3)cn2c1` (single isomer, unassigned) [Example 137], the EC50 in assay [1] (setting [3]) was found to be 251 nM; in assay [1] (setting [4]), 1.92 nM; in assay [2], 124 nM.
For `CN1CC(C2CC2)Cn2cc(C(=O)N3CC[C@]4(Cc5ccccc5CN4)[C@H](O)C3)nc21` (single isomer, unassigned) [Example 139] the same measures were 767 nM, 8.19 nM and 212 nM.
Turning to `CN1CC(C2CC2)Cn2cc(C(=O)N3CC[C@]4(Cc5ccccc5CN4)[C@H](O)C3)nc21` (single isomer, unassigned) [Example 142], the EC50 came out at 1860 nM in assay [1] (setting [3]), 29.5 nM in assay [1] (setting [4]) and 620 nM in assay [2].
As to `COCCN1CC(C2CC2)Cn2cc(C(=O)N3CC[C@]4(Cc5ccccc5CN4)[C@H](O)C3)nc21` (single isomer, unassigned) [Example 143], the EC50 in assay [1] (setting [4]) was determined as 184 nM; in assay [2] (Homo sapiens, MCF7, 72 h) it was 318 nM.
As to `COCCN1CC(C2CC2)Cn2cc(C(=O)N3CC[C@]4(Cc5ccccc5CN4)[C@H](O)C3)nc21` (single isomer, unassigned) [Example 144], the results for the EC50 in assay [1] (setting [4]) and in assay [2] were 65.9 nM and 173 nM, respectively.
On to `CC1(C)CC1(C#N)c1cnc2nc(C(=O)N3CC[C@]4(Cc5ccccc5CN4)[C@H](O)C3)cn2c1` (single isomer, unassigned) [Example 147], for which the EC50 in assay [1] (setting [4]) worked out at 0.409 nM; in assay [2] it was 2.28 nM.
Consider `CC1(C)CC1(C#N)c1cnc2nc(C(=O)N3CC[C@]4(Cc5ccccc5CN4)[C@H](O)C3)cn2c1` (single isomer, unassigned) [Example 148], for which the figures for the EC50 in assay [1] (setting [3]), in assay [1] (setting [4]) and in assay [2] were 1910 nM, 1.11 nM and 121 nM, respectively.
In the case of `COC[C@H]1C[C@@H](C(F)(F)F)Cn2cc(C(=O)N3CC[C@]4(Cc5ccccc5CN4)[C@H](O)C3)nc21` (single isomer, unassigned) [Example 155], the concentration giving a half-maximal response (EC50) in assay [1] (setting [3]) came out at 3980 nM; in assay [1] (setting [4]) it was 5.26 nM; in assay [2] (Homo sapiens, MCF7, 72 h) it was 122 nM.
Taken in the same sequence, the figures for `COC[C@@H]1C[C@H](C(F)(F)F)Cn2cc(C(=O)N3CC[C@]4(Cc5ccccc5CN4)[C@H](O)C3)nc21` (single isomer, unassigned) [Example 156] were 15800 nM, 42.7 nM and 642 nM.
`COCC1CC(C)Cn2cc(C(=O)N3CC[C@]4(Cc5ccccc5CN4)[C@H](O)C3)nc21` (single isomer, unassigned) [Example 157]: the EC50 came to 6460 nM in assay [1] (setting [3]), 8.94 nM in assay [1] (setting [4]) and 275 nM in assay [2].
Taken in the same sequence, the figures for `COCC1CC(C)Cn2cc(C(=O)N3CC[C@]4(Cc5ccccc5CN4)[C@H](O)C3)nc21` (single isomer, unassigned) [Example 158] were 29800 nM, 71.6 nM and 1700 nM.
Regarding `COCC1CC(C)Cn2cc(C(=O)N3CC[C@]4(Cc5ccccc5CN4)[C@H](O)C3)nc21` (single isomer, unassigned) [Example 159], the results for the EC50 in assay [1] (setting [3]), in assay [1] (setting [4]) and in assay [2] were 22400 nM, 61.7 nM and 527 nM, respectively.
As for `O=C(c1cn2c(n1)C(C1CCOC1)CC(C(F)(F)F)C2)N1CC[C@]2(Cc3ccccc3CN2)[C@H](O)C1` (single isomer, unassigned) [Example 160, ((3R,3′R)-3′-hydroxy-1,4-dihydro-2H-spiro[isoquinoline-3,4′-piperidin]-1′-yl)((6S,8S or 6R,8R)-8-((S or R)-tetrahydrofuran-3-yl)-6-(trifluoromethyl)-5,6,7,8-tetrahydroimidazo[1,2-a]pyridin-2-yl)methanone], the EC50 amounted to 9480 nM in assay [1] (setting [3]), 9.52 nM in assay [1] (setting [4]) and 289 nM in assay [2].

For orientation: EC50 means the concentration at which the effect is half-maximal.

(Values after patent US12441730B2, “PRMT5 inhibitors” (Merck Sharp & Dohme LLC, priority 2019, dated 2025).)
